In PubChem BioAssay (NCI):
Several values for one entry are separate records, joined by “and”; a condition that tells them apart may be missing. Identical values can stand only once.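 Grown in 96-well plates, cells were treated for 48 hours with each compound at five concentrations. Insufficient inhibition: endpoint recorded as highest concentration tested. Here, GI50 denotes the concentration required for 50% inhibition of growth. TGI: total growth inhibition.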

Columns and labels:
Experiment in all cases: NCI-60 cell line screen, 48 h
[1] = tested on: 786-0 renal
[2] = tested on: SF-268 CNS
[3] = tested on: NCI-H23 lung
[4] = tested on: SK-MEL-5 melanoma
[5] = tested on: MOLT-4 leukemia
[6] = tested on: NCI-H226 lung
[7] = tested on: SK-OV-3 ovarian
[8] = tested on: OVCAR-3 ovarian
[9] = tested on: OVCAR-8 ovarian
[10] = tested on: RXF 393 renal

SMILES	TGI [1] [µM]	TGI [2] [µM]	TGI [3] [µM]	TGI [4] [µM]	TGI [5] [µM]	TGI [6]	TGI [7] [µM]	TGI [8] [µM]	TGI [9] [µM]	TGI [10] [µM]	GI50 [6] [nM]
O=C(NNC1=NCCN1)c1ccco1	> 100	> 100	> 100	> 100	> 100	> 100 µM	> 100	> 100	> 100	> 100	–
COC(=O)c1ccc2c(O)c(O)ccc2c1	29.3	33.9	22.7	8.58	13.7	46.1 µM	38.7	17	37.2	31.4	–
COC(=O)C1CCC(=O)N1CN(C(C)=O)c1ccccc1 (stereo not drawn)	> 100	> 100	> 100	> 100	> 100	> 100 µM	> 100	> 100	> 100	–	–
O=[N+]([O-])/C=C1\COCc2cc3c(cc21)OCO3	44.3	67	27.1	39.9	> 100	57.6 µM	> 100	35.9	84.4	38.9	–
O=C(c1ccccc1)c1ccc(COc2ccc(C(c3c(O)c4ccccc4oc3=O)c3c(O)c4ccccc4oc3=O)cc2)cc1	61.5	> 100	37.6	37.2	45.4	31 µM	35.4	34.5	37.2	44.5	–
COc1nc(N)c(NC2OC(CO)C(O)C2O)c(=O)[nH]1 (stereo not drawn)	> 100	> 100	> 100	> 100	> 100	> 100 µM	> 100	> 100	> 100	> 100	–
CCC1(CC)CC(=NNS(=O)(=O)c2ccc(C)cc2)C1	> 100	> 100	> 100	> 100	> 100	> 100 µM	> 100	> 100	> 100	> 100	–
CCCN(C(=O)c1c(Cl)nnc(Cl)c1C(=O)c1cc(Cl)nnc1Cl)c1cc(Cl)nnc1Cl	21	20.2	20.3	21.4	12.5	57.3 µM	> 100	26.6	5.78	8.49	–
COC(=O)C1C(OC(=O)c2ccccc2)CC2CCC1N2C(N)=O (stereo not drawn)	> 100	> 100	> 100	> 100	> 100	> 100 µM	> 100	> 100	> 100	–	–
CN(/N=C(\C(=O)O)c1ccccc1)C1=NCCCN1	> 100	> 100	> 100	> 100	> 100	> 100 µM	> 100	> 100	> 100	> 100	–
O=C(CN1CCNCCN(CC(=O)N2CCCCC2)CCNCC1)N1CCCCC1	> 100	–	–	> 100	> 100	> 100 µM	> 100	> 100	> 100	–	–
CCC(NC(C)c1ccccc1)C(O)c1ccc(OCc2ccccc2)c(OCc2ccccc2)c1 (stereo not drawn)	27.1	36.4	31.6	14.4	33.4	36.3 µM	32.4	25.6	30.1	23	–
CC1C(c2ccccc2)OP(=O)(OC(C#N)c2ccccc2)N1C (stereo not drawn)	> 100	> 100	> 100	> 100	> 100	–	> 100	> 100	> 100	> 100	–
CC1(C)CS(=O)(=O)CC(C)(C)C(=N/N)/C1=N\N	> 100	> 100	> 100	> 100	–	–	> 100	> 100	> 100	–	–
CSc1nc(N)c(NC2OC(CO)C(O)C2O)c(=O)[nH]1 (stereo not drawn)	> 100	> 100	–	> 100	> 100	> 100 µM	> 100	> 100	> 100	> 100	–
Fc1ccc2nc3n(c2c1)C(c1c(F)cccc1F)SC3 (stereo not drawn)	> 100	> 100	> 100	> 100	> 100	> 100 µM	> 100	> 100	> 100	> 100	–
COc1ccc(NC2Oc3cc4c(cc3C(c3cccc(OC)c3OC)C2C)OCO4)cc1 (stereo not drawn)	> 100	> 100	79.5	56	35.9	> 100 µM	> 100	> 100	> 100	50.2	–
O=c1cc(-c2cccc(Cl)c2)[nH]c2ncccc12	14.5	> 88.8	> 100	1.92	> 24.8	> 100 µM	> 100	0.957	> 100	40.1	–
COc1cccc(/C=C2/Sc3scc(-c4ccccc4)[n+]3C2=O)c1O	32.1	> 100	38.9	31.1	49.5	40.5 µM	70.4	95.3	35.4	29.8	–
COC(=O)c1c2n(c3ccccc13)C[C@H]1OC(C)(C)O[C@@H]21	> 100	> 100	> 100	> 100	> 100	> 100 µM	> 100	> 100	> 100	> 100	–
COc1cc(OC)c(OC)cc1/C=N/N=C(\N)NO	> 100	> 100	> 100	> 100	> 100	> 100 µM	> 100	> 100	> 100	> 100	–
NNC(=O)c1ccc(-n2nnc(C(=O)NN)c2C(=O)NN)cc1	> 100	–	> 100	> 100	> 100	–	–	> 100	> 100	–	–
COC(=O)C1CC2(CCC1=O)Cc1ccccc1C2=O (stereo not drawn)	> 100	> 100	> 100	> 100	> 100	> 100 µM	> 100	–	> 100	> 100	–

SMILES	TGI [1] [µM]	TGI [2] [µM]	TGI [3] [µM]	TGI [4] [µM]	TGI [5] [µM]	TGI [6]	TGI [7] [µM]	TGI [8] [µM]	TGI [9] [µM]	TGI [10] [µM]	GI50 [6] [nM]
CN(C)CCNC(=O)c1cccc2c(NCC(=O)O)c3ccccc3nc12	62.7	33.4	45.1	67.3	> 100	30.9 µM	> 100	> 100	38.5	–	–
COc1cc2c(c(OC)c1OC)C(=O)[C@H](O)[C@H]2NC(N)=O	> 100	> 100	> 100	> 100	> 100	> 100 µM	–	> 100	> 100	> 100	–
COc1cc(OC)c(/C=C2\N=C(C)N(Nc3nnc(NN4C(=O)/C(=C/c5c(OC)cc(OC)cc5OC)N=C4C)c4ccccc34)C2=O)c(OC)c1	> 100	> 100	> 100	> 100	> 100	> 100 µM	–	–	> 100	> 100	–
COc1ccc(N2C(=O)C3c4[nH]c5ccc(C)cc5c4C4CCC(C)CC4C3C2=O)cc1 (stereo not drawn)	> 100	> 100	> 100	> 100	> 100	> 100 µM	> 100	> 100	> 100	58.6	–
CCCC(=O)NC1=C(NCC)C(=O)c2ccccc2C1=O	> 100	> 100	> 100	> 100	> 100	> 100 µM	> 100	> 100	–	> 100	–
COCn1c2ccc(OC(C)=O)cc2c2c(=O)oc(N(C)C)nc21	> 100	–	> 100	> 100	> 100	> 100 µM	> 100	–	> 100	> 100	–
COc1cc2cc(C(=O)N3CC(CCl)c4ccc(O)cc43)[nH]c2c(OC)c1OC (stereo not drawn)	0.121	0.145	0.812	0.000396	–	0.0566 µM and 0.471 µM	–	0.015	0.0253	0.000301	116
C=Cc1c(C)c(OC)cc2c1Oc1ccc(OC)c(C)c1CC2	> 100	> 100	> 100	> 100	> 100	> 100 µM	> 100	–	> 100	> 100	–
Cc1c(/C=N/NC(=S)Nc2ccccc2Cl)c(=O)n(-c2ccccc2)n1C	50	> 100	–	> 100	> 100	> 100 µM	82.5	> 100	84.1	47.9	–
O=C(NCc1cccnc1)NCc1cccnc1	> 100	> 100	> 100	> 100	–	> 100 µM	> 100	> 100	> 100	> 100	–
O=c1oc2ccccc2c(Nc2ccc3c(c2)S(=O)(=O)c2ccccc2O3)c1[N+](=O)[O-]	58.4	> 100	62.6	50.1	–	74.9 µM	68	79	78.4	51.2	–
N#Cc1c(N)oc(-c2cccc([N+](=O)[O-])c2)c1C#N	68.3	> 100	44	37.7	–	> 100 µM	> 100	–	44.1	57.3	–
CC12NN=NC1C(=O)NC2=O (stereo not drawn)	> 100	> 100	> 100	> 100	> 100	> 100 µM	> 100	> 100	> 100	–	–
COc1ccc(-c2c(N)n(-c3nc4ccccc4s3)c(=O)c3cc([N+](=O)[O-])ccc23)cc1	16.2	56.6	45.2	–	49.2	> 100 µM	33	35.4	23.2	30.9	–
C/C(=N\Nc1nc2ccccc2s1)c1ncccn1	15.8	5.12	1.11	0.219	> 53.9	–	–	2.06	0.0505	4.68	–
CCOC(=O)c1c(N2CCCC2)nsc1Nc1ccccc1	> 100	> 100	> 100	> 100	> 100	> 100 µM	–	–	> 100	> 100	–
COc1ccc(NS(=O)CCCc2ccccc2)cc1 (stereo not drawn)	> 100	> 100	> 100	> 100	> 100	> 100 µM	–	> 100	> 100	–	–
CN(C(=O)Cc1cc(Cl)c(Cl)cc1N=C=S)[C@H]1CCCC[C@@H]1N1CCCC1	25.5	31.4	30.5	27.8	14.2	–	32.3	29.6	28.8	13.1	–
CN(C)c1ccc(N=Nc2ccc3nc[nH]c3c2)cc1	36.1	54	> 100	> 100	> 100	82.1 µM	–	–	> 100	88.7	–
CCOC(=O)/C(C(=S)Nc1ccccc1)=C(/N)N1CCCC1	> 100	> 100	> 100	> 100	> 100	> 100 µM	–	> 100	> 100	> 100	–
CCCCCCNC(=O)c1cnc(Cl)cn1	> 100	31.4	23.5	30.4	23.2	21.7 µM	66	–	34.5	–	–
CCO[C@]12C[C@H](OC)[C@@]3(O)CC(C1[C@H]3OCc1ccccc1)C13C4C2[C@H](OC)C1[C@](COC)(CN4CC)[C@H](O)C[C@@H]3OC (stereo partly drawn)	> 100	> 100	> 100	> 100	> 100	> 100 µM	> 100	–	> 100	> 100	–
O=C(Cn1c2c(c3ccccc31)CCCC2)NC1CCCCC1	> 100	> 100	> 100	> 100	–	–	> 100	> 100	> 100	–	–
